Test results as given in publication PMC5458211, “Mitochondrial VDAC1-based peptides: Attacking oncogenic properties in glioblastoma” (Oncotarget, 2017).
Non-standard residues stand in square brackets, D forms with d. Residues, ends and D or L forms follow the SMILES beside them.

Legend:
LN-18 cells = experiment: Cell death by PI staining and flow cytometry, LN-18; format: cell-based, human; settings: 6 h at 37°C, serum-free medium, means ± SD (n=3), Fig 1H, read-out: IC50 for inducing cell death
From the text: Figure 1 VDAC1-based peptides induce dramatic cell death of several brain tumor-derived cell lines but to lesser extent in primary brain cells A. IHC staining of VDAC1 of human normal brain (n=13) or glioblastoma (n=41) in tissue array slides (Biomax), as described in Materials and methods available online in Supplemental information. Percentages of sections stained at the intensity indicated are shown. […] The VDAC1-derived sequences Δ(1-14)N-terminus and LP4 are in green and pink, respectively. The cell-penetrating peptides Antp and Tf are in orange and blue, respectively. The loop shape of LP4 stabilized by a tryptophan zipper is in purple. The amino acids of Δ(1-14)N-terminus, LP4 and Antp are in the D configuration. The sequences of D-LP4 and Retro-D-LP4 are presented below. C. […] Cells were harvested, washed twice with PBS and cell death was analyzed by propidium iodide (PI) staining and flow cytometry. […] Cells were harvested, washed twice with PBS and cell death was analyzed by PI staining and flow cytometry. […]
Cells (6×10^5 /ml) were incubated in 500 μl serum-free medium with the peptide of interest for 6 h at 37°C in the presence of 5% CO2. The cells were then trypsinized, centrifuged (1500xg, 5 min), washed with PBS and analyzed for cell death using propidium iodide (PI) staining and flow cytometer (Beckton-Dickinson, San Jose, CA) and BD CellQuest Pro software. […]

cancer cells = settings: ref [23]; cited from earlier work
From the text: D-ΔN-Ter-Antp is composed of Antp (Penetrating), a 16 residue-long sequence from the Drosophila antennapedia-homeodomain, fused to a VDAC1-N-terminal sequence, both containing amino ...

[1] = tested on: mice bearing U-87MG intracranial xenografts; experiment: Survival (Kaplan-Meier) in U-87MG intracranial xenograft; format: in vivo, human U-87MG in nude mice; settings: 10 mg/kg i.v., treatment ended day 46 post-inoculation
Procedure: (§1) B. U-87MG cells (2×10^5) were incubated for 12 h with the indicated concentrations of DMSO, Retro-Tf-D-LP4 peptide (Pep), or Retro-Tf-D-LP4 encapsulated in PLGA nanoparticles (PLGA-Pep). Samples of Retro-Tf-D-LP4 encapsulated in PLGA nanoparticles were centrifuged (15000g, 5 min) to separate the supernatant (Sup), containing free peptide, and the pellet, containing encapsulated Retro-Tf-D-LP4 peptide. Cell death was analyzed by PI staining and FACS analysis. C. Graphical representation of the orthotopic animal experiment. D. MRI imaging of brains 29 days post-intravenal treatment start with DMSO (1.05%), Retro-Tf-D-LP4 (10 mg/kg) encapsulated in PLGA nanoparticles or Tf-D-Retro-LP4 peptide (10 mg/Kg), as described in Materials and Methods available online in Supplemental information. E. Calculated tumor volumes after 20 (dark grey bars) and 29 (light grey bars) days post-treatment start. Results = mean ± SE (n = 6) (* p<0.05, *** p<0.001). F. Kaplan-Meier survival curves showing statistically significant differences in survival curves between the PBS/DMSO and Retro-Tf-D-LP4 treated mice. […]
(§2) For the intracranial-orthotopic xenograft mouse model, U-87MG cells (8×10^4) were engrafted into a nude mouse brain using a stereotactic device. […] Tumor volume was analyzed using VivoQuant 2.10 software.

[2] = Blood-brain barrier crossing in the intracranial xenograft model; format: in vivo, mouse; settings: i.v.; concluded from intracranial tumor model
Procedure: as §1, §2

Row | Compound | IC50 (LN-18 cells) [nM] | cell death induction, selection among over 40 versions (cancer cells) | prolongation of survival relative to untreated mice [1] | mice with prolonged survival ([1]; followed another 46 days, untreated all died by day 32) [%] | crossing of the blood-brain barrier / reaching the brain [2]
1 | CC[C@@H](C)[C@@H](NC(=O)[C@@H](CCCCN)NC(=O)[C@H](NC(=O)[C@@H](CCC(N)=O)NC(=O)[C@@H](CCCNC(=N)N)NC(=O)[C@@H](CC(C)C)NC(=O)CNC(=O)[C@@H](Cc1ccccc1)NC(=O)CNC(=O)[C@@H](Cc1ccc(O)cc1)NC(=O)CNC(=O)[C@@H](CCCCN)NC(=O)[C@H](NC(=O)[C@@H](Cc1ccccc1)NC(=O)[C@H](NC(=O)[C@@H](CC(=O)O)NC(=O)[C@H](N)CCCNC(=N)N)C(C)C)[C@H](C)O)[C@H](C)CC)C(=O)N[C@H](Cc1c[nH]c2ccccc12)C(=O)N[C@H](Cc1ccccc1)C(=O)N[C@H](CCC(N)=O)C(=O)N[C@H](CC(N)=O)C(=O)N[C@H](CCCNC(=N)N)C(=O)N[C@H](CCCNC(=N)N)C(=O)N[C@H](CCSC)C(=O)N[C@H](CCCCN)C(=O)N[C@H](Cc1c[nH]c2ccccc12)C(=O)N[C@H](CCCCN)C(=O)N[C@H](CCCCN)C(=O)O [D-ΔN-Ter-Antp] (H-[dR][dD][dV][dF][dT][dK]G[dY]G[dF]G[dL][dR][dQ][dI][dK][dI][dW][dF][dQ][dN][dR][dR][dM][dK][dW][dK][dK]-OH; N-terminus and C-terminus assumed) | 3000 ± 600 | most active in cell death induction | – | – | –
2 | CC[C@H](C)[C@H](NC(=O)[C@H](Cc1ccc(O)cc1)NC(=O)[C@@H]1CCCN1C(=O)[C@H](CCCNC(=N)N)NC(=O)[C@H](Cc1c[nH]cn1)NC(=O)[C@H](CO)NC(=O)[C@H](Cc1c[nH]c2ccccc12)NC(=O)[C@@H](NC(=O)[C@H](Cc1c[nH]c2ccccc12)NC(=O)[C@H](CCC(=O)O)NC(=O)[C@@H](CCCCN)NC(=O)[C@@H](CCCCN)NC(=O)[C@@H](CC(C)C)NC(=O)[C@@H](CCC(=O)O)NC(=O)[C@H](NC(=O)[C@@H](C)NC(=O)[C@H](NC(=O)[C@@H](CC(N)=O)NC(=O)[C@@H](CC(C)C)NC(=O)[C@@H](C)NC(=O)[C@@H](Cc1c[nH]c2ccccc12)NC(=O)[C@H](NC(=O)[C@@H](C)NC(=O)CNC(=O)[C@@H](CC(N)=O)NC(=O)[C@@H](CO)NC(=O)[C@@H](CC(N)=O)NC(=O)[C@H](CCCCN)NC(=O)[C@H](Cc1c[nH]c2ccccc12)NC(=O)[C@@H](NC(=O)[C@H](Cc1c[nH]c2ccccc12)NC(=O)[C@@H](N)CCCCN)[C@@H](C)O)[C@H](C)O)C(C)C)[C@H](C)O)[C@@H](C)O)C(=O)N[C@@H](C)C(=O)N[C@@H](Cc1c[nH]cn1)C(=O)O [Retro-Tf-D-LP4] | – | – | over 60 days | 40 | able to cross the blood-brain barrier in vivo
